This test deals with Pulicinae. The experiment in a line: In vitro systemic flea efficacy using membrane feeding assay. Type of test: functional.
The compound `C=C(C)[C@H]1C(=O)c2c3c(cc4c5c(n1c24)[C@@]1(C)C(CC[C@H]2[C@](C)(/C=C/C=C(\CCC)C(=O)NC(C)(C)C)[C@@H](O)CC[C@@]21C)C5)C1=CC(C)(C)OC(C)(C)C1[C@@H]3O` (stereo partly specified) showed an Activity of 10 p.p.m.
Consider `C=C(C)[C@H]1C(=O)c2c3c(cc4c5c(n1c24)[C@@]1(C)C(CC[C@H]2[C@](C)(/C=C/C=C/C(=O)OC(C)(C)C)[C@@H](O)CC[C@@]21C)C5)C1=CC(C)(C)OC(C)(C)C1[C@@H]3O` (stereo partly specified), for which the Activity is 10 p.p.m.
Compound `C=C(C)[C@H]1C(=O)c2c3c(cc4c5c(n1c24)[C@@]1(C)C(CC[C@H]2[C@](C)(/C=C/C=C(\CC)C(=O)NCC)[C@@H](O)CC[C@@]21C)C5)C1=CC(C)(C)OC(C)(C)C1[C@@H]3O` (stereo partly specified) gave an Activity of 1 p.p.m.
`C=C(C)[C@H]1C(=O)c2c3c(cc4c5c(n1c24)[C@@]1(C)C(CC[C@H]2[C@](C)(/C=C/C=C(\CCC)C(=O)NCC)[C@@H](O)CC[C@@]21C)C5)C1=CC(C)(C)OC(C)(C)C1[C@@H]3O` (stereo in doubt) gave an Activity of 10 p.p.m.
For `C=C(C)[C@H]1C(=O)c2c3c(cc4c5c(n1c24)[C@@]1(C)C(CC[C@H]2[C@](C)(/C=C/C=C(\C#N)C(=O)N4CCCC4)[C@@H](O)CC[C@@]21C)C5)C1=CC(C)(C)OC(C)(C)C1[C@@H]3O` (stereo partly specified) the value was 10 p.p.m; for `C=C(C)[C@H]1C(=O)c2c3c(cc4c5c(n1c24)[C@@]1(C)C(CC[C@H]2[C@](C)(/C=C/C=C(\CCC)C(=O)NCC)[C@@H](O)CC[C@@]21C)C5)C1=CC(C)(C)OC(C)(C)C1[C@@H]3O` (stereo in doubt; 45), 1 p.p.m; for `C=C(C)[C@H]1C(=O)c2c3c(cc4c5c(n1c24)[C@@]1(C)C(CC[C@H]2[C@](C)(/C=C/C=C(\CC)C(N)=O)[C@@H](O)CC[C@@]21C)C5)C1=CC(C)(C)OC(C)(C)C1[C@@H]3O` (stereo partly specified), 1 p.p.m.
Compound `C=C(C)[C@H]1C(=O)c2c3c(cc4c5c(n1c24)[C@@]1(C)C(CC[C@H]2[C@](C)(/C=C/C=C(\F)C(=O)NCC)[C@@H](O)CC[C@@]21C)C5)C1=CC(C)(C)OC(C)(C)C1[C@@H]3O` (stereo partly specified) had an Activity of 1 p.p.m.
As for `C=CC/C(=C\C=C\[C@]1(C)[C@@H](O)CC[C@@]2(C)[C@H]1CCC1Cc3c(n4c5c(c6c(cc35)C3=CC(C)(C)OC(C)(C)C3[C@@H]6O)C(=O)[C@@H]4C(=C)C)[C@@]12C)C(N)=O` (stereo partly specified), the Activity came to 1 p.p.m.
Consider `C=CC/C(=C\C=C\[C@]1(C)[C@@H](O)CC[C@@]2(C)[C@H]1CCC1Cc3c(n4c5c(c6c(cc35)C3=CC(C)(C)OC(C)(C)C3[C@@H]6O)C(=O)[C@@H]4C(=C)C)[C@@]12C)C(=O)OC` (stereo partly specified), for which the Activity stood at 10 p.p.m.
For the compound `C=C(C)[C@H]1C(=O)c2c3c(cc4c5c(n1c24)[C@@]1(C)C(CC[C@H]2[C@](C)(/C=C/C=C/C(C)=O)[C@@H](O)CC[C@@]21C)C5)C1=CC(C)(C)OC(C)(C)C1[C@@H]3O` (stereo partly specified), the Activity amounted to 10 p.p.m.
`C=C(C)[C@H]1C(=O)c2c3c(cc4c5c(n1c24)[C@@]1(C)C(CC[C@H]2[C@](C)(/C=C/C=C/P(=O)(OCC)OCC)[C@@H](O)CC[C@@]21C)C5)C1=CC(C)(C)OC(C)(C)C1[C@@H]3O` (stereo partly specified) registered an Activity of 10 p.p.m.
The compound `C=C(C)[C@H]1C(=O)c2c3c(cc4c5c(n1c24)[C@@]1(C)C(CC[C@H]2[C@](C)(/C=C/C=C/C(=O)NCC)[C@@H](O)CC[C@@]21C)C5)C1=CC(C)(C)OC(C)(C)C1[C@@H]3O` (stereo partly specified) displayed an Activity of 1 p.p.m.
With `C=C(C)[C@H]1C(=O)c2c3c(cc4c5c(n1c24)[C@@]1(C)C(CC[C@H]2[C@](C)(/C=C/C=C(\C#N)C(=O)N(C)C)[C@@H](O)CC[C@@]21C)C5)C1=CC(C)(C)OC(C)(C)C1[C@@H]3O` (stereo partly specified) the figure was 1 p.p.m; with `C=C(C)[C@H]1C(=O)c2c3c(cc4c5c(n1c24)[C@@]1(C)C(CC[C@H]2[C@](C)(/C=C/C=C/C(=O)N4CCCC4)[C@@H](O)CC[C@@]21C)C5)C1=CC(C)(C)OC(C)(C)C1[C@@H]3O` (stereo partly specified), 1 p.p.m.
With `C=C(C)[C@H]1C(=O)c2c3c(cc4c5c(n1c24)[C@@]1(C)C(CC[C@H]2[C@](C)(/C=C/C(C)=C/C(=O)NC4CC4)[C@@H](O)CC[C@@]21C)C5)C1=CC(C)(C)OC(C)(C)C1[C@@H]3O` (stereo partly specified), the Activity came to 1 p.p.m.
For `C=C(C)[C@H]1C(=O)c2c3c(cc4c5c(n1c24)[C@@]1(C)C(CC[C@H]2[C@](C)(/C=C/C=C(\F)C(=O)NC(C)(C)C)[C@@H](O)CC[C@@]21C)C5)C1=CC(C)(C)OC(C)(C)C1[C@@H]3O` (stereo partly specified), the Activity stood at 1 p.p.m.
`C=C(C)[C@H]1C(=O)c2c3c(cc4c5c(n1c24)[C@@]1(C)C(CC[C@H]2[C@](C)(/C=C/C(C)=C/C(=O)O)[C@@H](O)CC[C@@]21C)C5)C1=CC(C)(C)OC(C)(C)C1[C@@H]3O` (stereo partly specified): the Activity was determined as 10 p.p.m.
Compound `C=C(C)[C@H]1C(=O)c2c3c(cc4c5c(n1c24)[C@@]1(C)C(CC[C@H]2[C@](C)(/C=C/C=C/C(=O)N(C)C)[C@@H](O)CC[C@@]21C)C5)C1=CC(C)(C)OC(C)(C)C1[C@@H]3O` (stereo partly specified) had an Activity of 0.1 p.p.m.
For `C=C(C)[C@H]1C(=O)c2c3c(cc4c5c(n1c24)[C@@]1(C)C(CC[C@H]2[C@](C)(/C=C/C=C(\OC)C(N)=O)[C@@H](O)CC[C@@]21C)C5)C1=CC(C)(C)OC(C)(C)C1[C@@H]3O` (stereo partly specified) the value was 10 p.p.m; for `C=C(C)[C@H]1C(=O)c2c3c(cc4c5c(n1c24)[C@@]1(C)C(CC[C@H]2[C@](C)(/C=C/C=C/C(=O)OCc4ccccc4)[C@@H](O)CC[C@@]21C)C5)C1=CC(C)(C)OC(C)(C)C1[C@@H]3O` (stereo partly specified), 10 p.p.m.
`C=C(C)[C@H]1C(=O)c2c3c(cc4c5c(n1c24)[C@@]1(C)C(CC[C@H]2[C@](C)(/C=C/C=C(\OC)C(=O)NC(C)(C)C)[C@@H](O)CC[C@@]21C)C5)C1=CC(C)(C)OC(C)(C)C1[C@@H]3O` (stereo partly specified) gave an Activity of 1 p.p.m.
`C=C(C)[C@H]1C(=O)c2c3c(cc4c5c(n1c24)[C@@]1(C)C(CC[C@H]2[C@](C)(/C=C/C=C/C(=O)NCc4ccccc4)[C@@H](O)CC[C@@]21C)C5)C1=CC(C)(C)OC(C)(C)C1[C@@H]3O` (stereo partly specified) returned an Activity of 10 p.p.m.
`C=C(C)[C@H]1C(=O)c2c3c(cc4c5c(n1c24)[C@@]1(C)C(CC[C@H]2[C@](C)(/C=C/C=C/C(=O)O)[C@@H](O)CC[C@@]21C)C5)C1=CC(C)(C)OC(C)(C)C1[C@@H]3O` (stereo partly specified) yielded an Activity of 10 p.p.m.
Take `C=C(C)[C@H]1C(=O)c2c3c(cc4c5c(n1c24)[C@@]1(C)C(CC[C@H]2[C@](C)(/C=C/C=C(\C#N)c4nc6ccccc6[nH]4)[C@@H](O)CC[C@@]21C)C5)C1=CC(C)(C)OC(C)(C)C1[C@@H]3O` (stereo partly specified): the Activity is 10 p.p.m.
`C=C(C)[C@H]1C(=O)c2c3c(cc4c5c(n1c24)[C@@]1(C)C(CC[C@H]2[C@](C)(/C=C/C=C(\OC)C(=O)NCC)[C@@H](O)CC[C@@]21C)C5)C1=CC(C)(C)OC(C)(C)C1[C@@H]3O` (stereo partly specified) came in with an Activity of 10 p.p.m.
Take `C=C(C)[C@H]1C(=O)c2c3c(cc4c5c(n1c24)[C@@]1(C)C(CC[C@H]2[C@](C)(/C=C/C=C(\CCC)C(=O)O)[C@@H](O)CC[C@@]21C)C5)C1=CC(C)(C)OC(C)(C)C1[C@@H]3O` (stereo partly specified): the Activity was greater than 10 p.p.m.
Turning to `C=C(C)[C@H]1C(=O)c2c3c(cc4c5c(n1c24)[C@@]1(C)C(CC[C@H]2[C@](C)(/C=C/C=C(\CC)C(=O)N4CCCC4)[C@@H](O)CC[C@@]21C)C5)C1=CC(C)(C)OC(C)(C)C1[C@@H]3O` (stereo partly specified), the Activity turned out to be 10 p.p.m.
For the compound `C=CCOC(=O)/C=C/C=C/[C@]1(C)[C@@H](O)CC[C@@]2(C)[C@H]1CCC1Cc3c(n4c5c(c6c(cc35)C3=CC(C)(C)OC(C)(C)C3[C@@H]6O)C(=O)[C@@H]4C(=C)C)[C@@]12C` (stereo partly specified), the Activity was determined as 1 p.p.m.
With `C=C(C)[C@H]1C(=O)c2c3c(cc4c5c(n1c24)[C@@]1(C)C(CC[C@H]2[C@](C)(/C=C/C=C\C(N)=O)[C@@H](O)CC[C@@]21C)C5)C1=CC(C)(C)OC(C)(C)C1[C@@H]3O` (stereo partly specified) the figure was 10 p.p.m; with `C=C(C)[C@H]1C(=O)c2c3c(cc4c5c(n1c24)[C@@]1(C)C(CC[C@H]2[C@](C)(/C=C/C=C(\CC)C(=O)O)[C@@H](O)CC[C@@]21C)C5)C1=CC(C)(C)OC(C)(C)C1[C@@H]3O` (stereo partly specified), 10 p.p.m.
`C=C(C)[C@H]1C(=O)c2c3c(cc4c5c(n1c24)[C@@]1(C)C(CC[C@H]2[C@](C)(/C=C/C=C(\C)C(=O)O)[C@@H](O)CC[C@@]21C)C5)C1=CC(C)(C)OC(C)(C)C1[C@@H]3O` (stereo partly specified) gave an Activity of 1 p.p.m.
In turn, `C=C(C)[C@H]1C(=O)c2c3c(cc4c5c(n1c24)[C@@]1(C)C(CC[C@H]2[C@](C)(/C=C/C=C(\CCC)C(N)=O)[C@@H](O)CC[C@@]21C)C5)C1=CC(C)(C)OC(C)(C)C1[C@@H]3O` (stereo partly specified) showed an Activity of 10 p.p.m.
In turn, `C=C(C)[C@H]1C(=O)c2c3c(cc4c5c(n1c24)[C@@]1(C)C(CC[C@H]2[C@](C)(/C=C/C=C/C(=O)N(C)CC)[C@@H](O)CC[C@@]21C)C5)C1=CC(C)(C)OC(C)(C)C1[C@@H]3O` (stereo partly specified) yielded an Activity of 1 p.p.m.
`C=C(C)[C@H]1C(=O)c2c3c(cc4c5c(n1c24)[C@@]1(C)C(CC[C@H]2[C@](C)(/C=C/C(C)=C/C(=O)NCC)[C@@H](O)CC[C@@]21C)C5)C1=CC(C)(C)OC(C)(C)C1[C@@H]3O` (stereo partly specified): the Activity came out at 10 p.p.m.
Turning to `C=C(C)[C@H]1C(=O)c2c3c(cc4c5c(n1c24)[C@@]1(C)C(CC[C@H]2[C@](C)(/C=C/C=C(\CCCC)C(=O)NCC)[C@@H](O)CC[C@@]21C)C5)C1=CC(C)(C)OC(C)(C)C1[C@@H]3O` (stereo partly specified), the Activity is 1 p.p.m.
The compound `C=C(C)[C@H]1C(=O)c2c3c(cc4c5c(n1c24)[C@@]1(C)C(CC[C@H]2[C@](C)(/C=C/C(C)=C/C(=O)NC(C)C)[C@@H](O)CC[C@@]21C)C5)C1=CC(C)(C)OC(C)(C)C1[C@@H]3O` (stereo partly specified) registered an Activity of 1 p.p.m.
As for `C=CC/C(=C\C=C\[C@]1(C)[C@@H](O)CC[C@@]2(C)[C@H]1CCC1Cc3c(n4c5c(c6c(cc35)C3=CC(C)(C)OC(C)(C)C3[C@@H]6O)C(=O)[C@@H]4C(=C)C)[C@@]12C)C(=O)NC(C)(C)C` (stereo partly specified), the Activity was 10 p.p.m.
`C=C(C)[C@H]1C(=O)c2c3c(cc4c5c(n1c24)[C@@]1(C)C(CC[C@H]2[C@](C)(/C=C/C=C(\CC)C(=O)NC(C)(C)C)[C@@H](O)CC[C@@]21C)C5)C1=CC(C)(C)OC(C)(C)C1[C@@H]3O` (stereo partly specified) returned an Activity of 1 p.p.m.
Compound `C=C(C)[C@H]1C(=O)c2c3c(cc4c5c(n1c24)[C@@]1(C)C(CC[C@H]2[C@](C)(/C=C/C=C(\OC)C(=O)O)[C@@H](O)CC[C@@]21C)C5)C1=CC(C)(C)OC(C)(C)C1[C@@H]3O` (stereo partly specified) registered an Activity of 10 p.p.m.
Turning to `C=C(C)[C@H]1C(=O)c2c3c(cc4c5c(n1c24)[C@@]1(C)C(CC[C@H]2[C@](C)(/C=C/C=C(\CCCC)C(=O)NC(C)(C)C)[C@@H](O)CC[C@@]21C)C5)C1=CC(C)(C)OC(C)(C)C1[C@@H]3O` (stereo partly specified), the Activity stood at 10 p.p.m.
